Measurements published in US20070270436A1, “NOVEL AMINO- AND IMINO-ALKYLPIPERAZINES” (Recordati Ireland Limited, priority 2006, published 2007).

These compounds were tested against T1, human 5HT1A-serotonergic receptor (Homo sapiens, UniProt P08908) (assay: Radioligand binding to recombinant 5-HT1A receptor ([3H]8-OH-DPAT, HeLa cell membranes)). Details: 1 nM [3H]8-OH-DPAT; Ki from IC50 by the Cheng equation; read-out: Ki (nM), binding affinity for 5HT1A receptor.
T1 construct: expressed in transfected cells; host or cells: HeLa (human), stably transfected; membranes
T1 sequence (P08908 1-422): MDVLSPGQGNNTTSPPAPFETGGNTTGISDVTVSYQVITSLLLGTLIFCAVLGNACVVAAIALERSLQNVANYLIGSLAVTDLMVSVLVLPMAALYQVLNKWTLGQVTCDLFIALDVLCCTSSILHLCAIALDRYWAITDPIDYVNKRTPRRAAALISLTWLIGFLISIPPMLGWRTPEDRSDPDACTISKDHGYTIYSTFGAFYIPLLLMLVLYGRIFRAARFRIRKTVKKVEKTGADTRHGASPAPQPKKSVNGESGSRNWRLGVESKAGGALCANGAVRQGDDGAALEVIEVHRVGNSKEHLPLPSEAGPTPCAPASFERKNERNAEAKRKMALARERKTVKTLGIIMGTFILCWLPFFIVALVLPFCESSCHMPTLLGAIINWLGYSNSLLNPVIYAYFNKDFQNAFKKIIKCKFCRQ
Experimental: Genomic clone G-21 encoding the human 5HT1A-serotonergic receptor was stably transfected in a human cell line (HeLa). HeLa cells were grown as monolayers in Dulbecco's modified Eagle medium (DMEM), containing 10% fetal bovine serum and gentamycin (100 μg/ml) at 37° C. in a humidified atmosphere of 5% CO2 and air. The cells were detached from the growth flask at 95% confluence by a cell scraper and were lysed in cold 5 mM Tris and 5 mM EDTA buffer (pH 7.4). The homogenates were centrifuged at 40000×g×20 minutes and the pellets were resuspended in a small volume of cold 5 mM Tris and 5 mM EDTA buffer (pH 7.4) and immediately frozen and stored at −70° C. until use. On the day of experiment, the cell membranes were resuspended in incubation buffer: 50 mM Tris (pH 7.4), 2.5 mM MgCl2, 10 μM pargyline (Fargin et al., Nature 335, 358-360, 1988). The membranes were incubated in a final volume of 0.32 ml for 30 minutes at 30° C. with 1 nM [^3H]8-OH-DPAT, in the absence or presence of the test compounds. Non-specific binding was determined in the presence of 10 μM 5-HT. Incubation was stopped by addition of cold Tris buffer and rapid filtration through UniFilter GF/C plate.
The affinity of the tested compounds was evaluated as inhibition of specific binding of the radioligand to 5-HT1A receptor (IC50) by using the non-linear curve-fitting program Allfit (De Lean et al., Am. J. Physiol. 235, E97-E102 (1978)). The IC50 value was converted to an affinity constant (Ki) by the equation of Cheng et al., Biochem. Pharmacol. 22, 3099-3108 (1973).
In the case of `CON=C(C)C(CCN1CCN(c2cccc3c2OCCO3)CC1)c1ccccc1F` (mixture of isomers) [Example 28, 5-[4-(2,3-Dihydrobenzo[1,4]dioxin-5-yl)piperazin-1-yl]-3-(2-fluorophenyl)-pentan-2-one O-methyloxime], the Ki is reported as 1.33 nM. In the case of `COc1ccccc1N1CCN(CC[C@@H](c2ccccc2F)[C@H](N)C2CCCCC2)CC1` (racemic) [Example 5a, (RS,SR)-1-Cyclohexyl-2-(2-fluorophenyl)-4-[4-(2-methoxyphenyl)-piperazin-1-yl]butylamine], the Ki is reported as 0.48 nM. `COc1ccccc1N1CCN(CC[C@H](c2ccccc2F)[C@H](N)C2CCCCC2)CC1` (racemic) [Example 5b, (RS,RS)-1-Cyclohexyl-2-(2-fluorophenyl)-4-[4-(2-methoxyphenyl)-piperazin-1-yl]butylamine] showed a Ki of 0.77 nM. `COc1ccccc1N1CCN(CC[C@H](c2ccccc2F)[C@H](NC(C)=O)C2CCCCC2)CC1` (racemic) [Example 9, N-{(RS,RS)-1-Cyclohexyl-2-(2-fluorophenyl)-4-[4-(2-methoxyphenyl)-piperazin-1-yl]butyl}acetamide] gave a Ki of 1.4 nM. `COc1ccccc1N1CCN(CC[C@@H](c2ccccc2F)[C@H](NC(C)C)C2CCCCC2)CC1` (racemic) [Example 12, (RS,SR)-{1-Cyclohexyl-2-(2-fluorophenyl)-4-[4-(2-methoxyphenyl)-piperazin-1-yl]butyl}isopropylamine] gave a Ki of 0.99 nM. `COc1ccccc1N1CCN(CC[C@@H](c2ccccc2F)[C@H](NCc2ccco2)C2CCCCC2)CC1` (racemic) [Example 14, {(RS,SR)-1-Cyclohexyl-2-(2-fluorophenyl)-4-[4-(2-methoxyphenyl)-piperazin-1-yl]butyl}furan-2-ylmethylamine] gave a Ki of 0.42 nM. `COc1ccccc1N1CCN(CC[C@@H](c2ccccc2F)[C@H](NC(N)=O)C2CCCCC2)CC1` (racemic) [Example 18, {(RS,SR)-1-Cyclohexyl-2-(2-fluorophenyl)-4-[4-(2-methoxyphenyl)-piperazin-1-yl]butyl}urea] gave a Ki of 1.84 nM. For `CNC(=O)N[C@H](C1CCCCC1)[C@@H](CCN1CCN(c2ccccc2OC)CC1)c1ccccc1F` (racemic) [Example 19, 1-{(RS,SR)-1-Cyclohexyl-2-(2-fluorophenyl)-4-[4-(2-methoxyphenyl)-piperazin-1-yl]butyl}-3-methylurea], the Ki was 2.09 nM. `COc1ccccc1N1CCN(CC[C@@H](c2ccccc2F)[C@@H](C2CCCCC2)N(C)C(=O)N(C)C)CC1` (racemic) [Example 22, 1-{(RS,SR)-1-Cyclohexyl-2-(2-fluorophenyl)-4-[4-(2-methoxyphenyl)-piperazin-1-yl]butyl}-1,3,3-trimethylurea] showed a Ki of 1.24 nM. For `CNC(=S)N[C@H](C1CCCCC1)[C@@H](CCN1CCN(c2ccccc2OC)CC1)c1ccccc1F` (racemic) [Example 23, 1-{(RS,SR)-1-Cyclohexyl-2-(2-fluorophenyl)-4-[4-(2-methoxyphenyl)-piperazin-1-yl]butyl}-3-methylthiourea], the Ki was 0.58 nM. `CO/N=C(\C1CCCCC1)C(CCN1CCN(c2cccc3c2OCCO3)CC1)c1ccccc1C#N` (racemic) [Example 26, (R,S)-2-{1′-{Cyclohexyl-[(E)-methoxyimino]methyl}-3-[4-(2,3-dihydrobenzo[1,4]dioxin-5-yl)-piperazin-1-yl]propyl}benzonitrile] gave a Ki of 0.38 nM. Work on `N[C@H](C1CCCCC1)[C@@H](CCN1CCN(c2cccc3c2OCCO3)CC1)c1ccccc1F` (racemic) [Example 38, (RS,SR)-1-Cyclohexyl-4-[4-(2,3-dihydrobenzo[1,4]dioxin-5-yl)-piperazin-1-yl]-2-(2-fluorophenyl)butylamine] yielded a Ki of 0.8 nM. `COc1ccccc1N1CCN(CC[C@@H](c2ccccc2F)[C@H](N)C2CCCCC2)CC1` (single isomer, unassigned) [Example 5aA, (1R,2S) or (1S,2R)-1-Cyclohexyl-2-(2-fluorophenyl)-4-[4-(2-methoxyphenyl)piperazin-1-yl]butylamine] gave a Ki of 0.6 nM. `COc1ccccc1N1CCN(CC[C@H](c2ccccc2F)[C@@H](N)C2CCCCC2)CC1` (single isomer, unassigned) [Example 5aB, (1S,2R) or (1R,2S)-1-Cyclohexyl-2-(2-fluorophenyl)-4-[4-(2-methoxyphenyl)piperazin-1-yl]butylamine] showed a Ki of 1.2 nM. In the case of `COc1ccccc1N1CCN(CC[C@H](c2ccccc2F)[C@@H](NC(=S)N(C)C)C2CCCCC2)CC1` (single isomer, unassigned) [Example 24B, 3-{(1S,2R) or (1R,2S)-1-Cyclohexyl-2-(2-fluorophenyl)-4-[4-(2-methoxyphenyl)piperazin-1-yl]butyl}-1,1-dimethylthiourea], the Ki is reported as 4.2 nM. `CON=C(C1CCCCC1)C(CCN1CCN(c2ccccc2OC)CC1)c1ccccc1F` (stereo not drawn) [Example 2, 1-Cyclohexyl-2-(2-fluorophenyl)-4-[4-(2-methoxyphenyl)-piperazin-1-yl]butan-1-one O-methyloxime] was tested, and the Ki was 1.9 nM. Compound `COc1ccccc1N1CCN(CCC(C(=NOC(C)=O)C2CCCCC2)c2ccccc2F)CC1` (stereo not drawn) [Example 3, 1-Cyclohexyl-2-(2-fluorophenyl)-4-[4-(2-methoxyphenyl)-piperazin-1-yl]butan-1-one O-acetyl oxime] has a Ki of 0.87 nM. `COc1ccccc1N1CCN(CCC(c2ccccc2F)C(NC=O)C2CCCCC2)CC1` (stereo not drawn) [Example 6, N-{1-Cyclohexyl-2-(2-fluorophenyl)-4-[4-(2-methoxyphenyl)-piperazin-1-yl]butyl}formamide] gave a Ki of 1.2 nM. For `CNC(C1CCCCC1)C(CCN1CCN(c2ccccc2OC)CC1)c1ccccc1F` (stereo not drawn) [Example 10a], the Ki was 0.49 nM. In the case of `CNC(C1CCCCC1)C(CCN1CCN(c2ccccc2OC)CC1)c1ccccc1F` (stereo not drawn) [Example 10b], the Ki is reported as 1.41 nM. For `COc1ccccc1N1CCN(CCC(c2ccccc2F)C(C2CCCCC2)N(Cc2ccco2)Cc2ccco2)CC1` (stereo not drawn) [Example 15], the Ki was 7.28 nM. Work on `COc1ccccc1N1CCN(CCC(c2ccccc2F)C(NC(=O)N2CCOCC2)C2CCCCC2)CC1` (stereo not drawn) [Example 20, 1-{(RS,SR)-1-Cyclohexyl-2-(2-fluorophenyl)-4-[4-(2-methoxyphenyl)-piperazin-1-yl]butyl}morpholine-4-carboxamide] yielded a Ki of 2.9 nM. Compound `CC(=NO)C(CCN1CCN(c2cccc3c2OCCO3)CC1)c1ccccc1F` (stereo not drawn) [Example 27, E(Z)-5-[4-(2,3-Dihydrobenzo[1,4]dioxin-5-yl)piperazin-1-yl]-3-(2-fluorophenyl)pentan-2-one oxime] has a Ki of 1.77 nM. Work on `CC(=NO)C(CCN1CCN(c2ccccc2OCC(F)(F)F)CC1)c1ccccc1F` (stereo not drawn) [Example 31, E(Z)-3-(2-Fluorophenyl)-5-{4-[2-(2,2,2-trifluoroethoxy)phenyl]-piperazin-1-yl}pentan-2-one oxime] yielded a Ki of 6.03 nM. With `CON=C(C)C(CCN1CCN(c2ccccc2OCC(F)(F)F)CC1)c1ccccc1F` (stereo not drawn) [Example 32, E(Z)-3-(2-Fluorophenyl)-5-{4-[2-(2,2,2-trifluoroethoxy)phenyl]-piperazin-1-yl}pentan-2-one O-methyloxime] the Ki was 2.24 nM. In the case of `O=CNC(C1CCCCC1)C(CCN1CCN(c2cccc3c2OCCO3)CC1)c1ccccc1F` (stereo not drawn) [Example 37, N-[1-Cyclohexyl-4-[4-(2,3-dihydrobenzo[1,4]dioxin-5-yl)piperazin-1-yl]-2-(2-fluorophenyl)butyl]formamide], the Ki is reported as 0.8 nM. For `CNC(C1CCCCC1)C(CCN1CCN(c2cccc3c2OCCO3)CC1)c1ccccc1F` (stereo not drawn) [Example 39, 1-Cyclohexyl-4-[4-(2,3-dihydrobenzo[1,4]dioxin-5-yl)piperazin-1-yl]-2-(2-fluorophenyl)butylmethylamine], the Ki was 0.3 nM. `COc1ccc(Br)c(CN2CCN(CCC(c3ccccc3F)C(NC=O)C3CCCCC3)CC2)c1` (stereo not drawn) [Example 42, N-[4-[4-(2-Bromo-5-methoxybenzyl)piperazin-1-yl]-1-cyclohexyl-2-(2-fluorophenyl)butyl]formamide] gave a Ki of 0.5 nM. `COc1ccc(Br)c(CN2CCN(CCC(c3ccccc3F)C(N)C3CCCCC3)CC2)c1` (stereo not drawn) [Example 43, 4-[4-(2-Bromo-5-methoxybenzyl)piperazin-1-yl]-1-cyclohexyl-2-(2-fluorophenyl)butylamine] gave a Ki of 0.3 nM. For `CNC(C1CCCCC1)C(CCN1CCN(Cc2cc(OC)ccc2Br)CC1)c1ccccc1F` (stereo not drawn) [Example 44, 4-[4-(2-Bromo-5-methoxybenzyl)piperazin-1-yl]-1-cyclohexyl-2-(2-fluorophenyl)butylmethylamine], the Ki was 0.4 nM.
